For 28 compounds, EC50 results are on record in patent publication US20240262832A1, “SMALL MOLECULE MODULATORS OF GLUCOCEREBROSIDASE ACTIVITY AND USES THEREOF” (Vanqua Bio, Inc., priority 2021, published 2024).

This experiment deals with T1, GCase (Homo sapiens, UniProt P04062).
T1 construct: endogenous in cells; host or cells: HeLa cells
T1 sequence (P04062 40-536): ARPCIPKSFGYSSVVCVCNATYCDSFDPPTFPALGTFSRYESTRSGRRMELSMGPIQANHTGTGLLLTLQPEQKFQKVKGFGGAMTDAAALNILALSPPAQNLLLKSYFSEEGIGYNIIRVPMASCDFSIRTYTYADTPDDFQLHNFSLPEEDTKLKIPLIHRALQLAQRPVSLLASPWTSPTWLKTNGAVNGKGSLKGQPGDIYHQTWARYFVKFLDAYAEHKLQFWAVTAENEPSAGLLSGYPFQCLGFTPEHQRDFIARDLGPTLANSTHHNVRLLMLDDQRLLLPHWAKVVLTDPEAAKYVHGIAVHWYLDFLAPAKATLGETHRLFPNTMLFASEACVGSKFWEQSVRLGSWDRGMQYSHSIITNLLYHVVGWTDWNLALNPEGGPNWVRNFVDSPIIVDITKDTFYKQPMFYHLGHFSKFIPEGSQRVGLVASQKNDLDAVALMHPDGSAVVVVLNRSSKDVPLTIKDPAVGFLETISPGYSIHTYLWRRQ
Description: activation of GCase in a live cell PFB assay in HELA cells. In kind it is cell-based.
Take `CC(CC1CCCN(c2cnc3cnn(CC(F)F)c3n2)C1)c1ccccc1C(F)(F)F` (stereo not shown) [Compound 66, 1-(2,2-Difluoroethyl)-6-(3-(2-(2-(trifluoromethyl)phenyl)propyl)piperidin-1-yl)-1H-pyrazolo[3,4-b]pyrazine]: the EC50 (as a rule, the midpoint of the concentration-response curve) lay in the range of 10 to 50 µM.

Consider `Cc1ccccc1OCC1CCCN(C(=O)c2cnc3c(cnn3-c3ccccc3)n2)C1` (stereo not shown) [Compound 67, (1-phenyl-1H-pyrazolo[3,4-b]pyrazin-5-yl)(3-((o-tolyloxy)methyl)piperidin-1-yl)methanone], for which the EC50 fell in the range of 10 to 50 µM.

Compound `Cn1c(-c2ccccc2)cc2nc(C(=O)N3CCCC(COc4cccnc4C(F)(F)F)C3)cnc21` (stereo not shown) [Compound 68, (5-methyl-6-phenyl-5H-pyrrolo[2,3-b]pyrazin-2-yl)(3-(((2-(trifluoromethyl)pyridin-3-yl)oxy)methyl)piperidin-1-yl)methanone] returned an EC50 of 10 to 50 µM.

In turn, `FC(F)Cn1ncc2ncc(N3CCCC(COc4nccnc4Cl)C3)nc21` (stereo not shown) [Compound 69, 6-(3-(((3-Chloropyrazin-2-yl)oxy)methyl)piperidin-1-yl)-1-(2,2-difluoroethyl)-1H-pyrazolo[3,4-b]pyrazine] registered an EC50 of more than 100 µM.

The compound `CC(=O)N1CCC(c2cc3ncc(N4CCCC(COc5cccnc5C(F)(F)F)C4)nc3n2C)CC1` (stereo not shown) [Compound 73, 1-(4-(5-methyl-3-(3-(((2-(trifluoromethyl)pyridin-3-yl)oxy)methyl)piperidin-1-yl)-5H-pyrrolo[2,3-b]pyrazin-6-yl)piperidin-1-yl)ethan-1-one] returned an EC50 of less than 10 µM.

In turn, `O=C(c1ccc2cc[nH]c2c1)N1C[C@@H]2[C@@H](COc3cccc(C(F)(F)F)n3)[C@@H]2C1` [Compound 74, 6-[(1R,5S,6S)-6-({[6-(trifluoromethyl)pyridin-2-yl]oxy}methyl)-3-azabicyclo[3.1.0]hexane-3-carbonyl]-1H-indole] showed an EC50 of 10 to 50 µM.

Consider `CC(C)c1cc(C(=O)N2C[C@@H]3[C@@H](COc4cccc(C(F)(F)F)n4)[C@@H]3C2)[nH]n1` [Compound 75, (1R,5S,6S)-3-[3-(Propan-2-yl)-1H-pyrazole-5-carbonyl]-6-({[6-(trifluoromethyl)pyridin-2-yl]oxy}methyl)-3-azabicyclo[3.1.0]hexane], for which the EC50 lay within 10 to 50 µM.

Compound `O=C(c1nnc(C2(c3ccccc3)CCOC2)o1)N1CCCC(COc2ccccc2)C1` (stereo not shown) [Compound 76, 3-(phenoxymethyl)-1-[5-(3-phenyloxolan-3-yl)-1,3,4-oxadiazole-2-carbonyl]piperidine] yielded an EC50 of 10 to 50 µM.

`C[C@H]1CC[C@@H](COc2cccnc2C(F)(F)F)CN1c1cnc2cnn(CC(F)F)c2n1` [Compound 77, 1-(2,2-Difluoroethyl)-6-((2S,5R)-2-methyl-5-(((2-(trifluoromethyl)pyridin-3-yl)oxy)methyl)piperidin-1-yl)-1H-pyrazolo[3,4-b]pyrazine] displayed an EC50 of less than 10 µM.

`C[C@H]1CC[C@H](COc2cccnc2C(F)(F)F)CN1c1cnc2cnn(CC(F)F)c2n1` [Compound 78, 3-{[(3S,6S)-1-[1-(2,2-Difluoroethyl)pyrazolo[3,4-b]pyrazin-6-yl]-6-methylpiperidin-3-yl]methoxy}-2-(trifluoromethyl)pyridine] returned a concentration giving a half-maximal response (EC50) of more than 100 µM.

Regarding `C[C@@H]1CC[C@@H](COc2cccnc2C(F)(F)F)CN1c1cnc2cnn(CC(F)F)c2n1` [Compound 79, 1-(2,2-Difluoroethyl)-6-((2R,5R)-2-methyl-5-(((2-(trifluoromethyl)pyridin-3-yl)oxy)methyl)piperidin-1-yl)-1H-pyrazolo[3,4-b]pyrazine], the concentration for a half-maximal effect (EC50) is less than 10 µM.

As for `C[C@@H]1CC[C@H](COc2cccnc2C(F)(F)F)CN1c1cnc2cnn(CC(F)F)c2n1` [Compound 80, 1-(2,2-Difluoroethyl)-6-((2R,5S)-2-methyl-5-(((2-(trifluoromethyl)pyridin-3-yl)oxy)methyl)piperidin-1-yl)-1H-pyrazolo[3,4-b]pyrazine], the EC50 is less than 10 µM.

Turning to `Cc1ccccc1OCC1CCCN(C(=O)c2c(-c3ccccc3)n(C)c3nccnc23)C1` (stereo not shown) [Compound 81, (5-Methyl-6-phenyl-5H-pyrrolo[2,3-b]pyrazin-7-yl)(3-((o-tolyloxy)methyl)piperidin-1-yl)methanone], the EC50 fell in the range of 10 to 50 µM.

With `CC(=O)N1CCC(c2cc3ncc(N4CCCC(COc5ccccc5C)C4)nc3n2C)CC1` (stereo not shown) [Compound 86, 1-(4-(5-Methyl-3-(3-((o-tolyloxy)methyl)piperidin-1-yl)-5H-pyrrolo[2,3-b]pyrazin-6-yl)piperidin-1-yl)ethan-1-one], the EC50 is 10 to 50 µM.

Regarding `Fc1cc(F)cc(OCC2CCCN(c3cnc4cnn(C5COC5)c4n3)C2)c1` (stereo not shown) [Compound 88, 6-(3-((3,5-Difluorophenoxy)methyl)piperidin-1-yl)-1-(oxetan-3-yl)-1H-pyrazolo[3,4-b]pyrazine], the EC50 was 10 to 50 µM.

The compound `FC(F)Cn1ncc2ncc(N3C[C@@H]4[C@@H](COc5ncccc5C(F)(F)F)[C@@H]4C3)nc21` [Compound 89, (1R,5S,6S)-3-[1-(2,2-difluoroethyl)-1H-pyrazolo[3,4-b]pyrazin-6-yl]-6-({[3-(trifluoromethyl)pyridin-2-yl]oxy}methyl)-3-azabicyclo[3.1.0]hexane] registered an EC50 of 10 to 50 µM.

For the compound `FC(F)Cn1ncc2ncc(N3C[C@@H]4[C@@H](COc5cc(C(F)(F)F)ccn5)[C@@H]4C3)nc21` [Compound 90, (1R,5S,6S)-3-[1-(2,2-difluoroethyl)-1H-pyrazolo[3,4-b]pyrazin-6-yl]-6-({[4-(trifluoromethyl)pyridin-2-yl]oxy}methyl)-3-azabicyclo[3.1.0]hexane], the EC50 is 10 to 50 µM.

Regarding `FC(F)Cn1ncc2ncc(N3C[C@@H]4[C@@H](COc5cnccc5C(F)(F)F)[C@@H]4C3)nc21` [Compound 91, (1R,5S,6S)-3-[1-(2,2-difluoroethyl)-1H-pyrazolo[3,4-b]pyrazin-6-yl]-6-({[4-(trifluoromethyl)pyridin-3-yl]oxy}methyl)-3-azabicyclo[3.1.0]hexane], the EC50 was 10 to 50 µM.

Compound `FC(F)Cn1ncc2ncc(N3C[C@@H]4[C@@H](COc5ccnc(C(F)(F)F)c5)[C@@H]4C3)nc21` [Compound 92, (1R,5S,6S)-3-[1-(2,2-difluoroethyl)-1H-pyrazolo[3,4-b]pyrazin-6-yl]-6-({[2-(trifluoromethyl)pyridin-4-yl]oxy}methyl)-3-azabicyclo[3.1.0]hexane] returned an EC50 of 10 to 50 µM.

`C[C@H]1C[C@@H](COc2cccnc2C(F)(F)F)CN(c2cnc3cnn(CC(F)F)c3n2)C1` [Compound 93, 1-(2,2-Difluoroethyl)-6-((3S,5R)-3-methyl-5-(((2-(trifluoromethyl)pyridin-3-yl)oxy)methyl)piperidin-1-yl)-1H-pyrazolo[3,4-b]pyrazine] yielded a 50% effective concentration (EC50) of less than 10 µM.

In the case of `C[C@@H]1C[C@H](COc2cccnc2C(F)(F)F)CN(c2cnc3cnn(CC(F)F)c3n2)C1` [Compound 94, 1-(2,2-Difluoroethyl)-6-((3R,5S)-3-methyl-5-(((2-(trifluoromethyl)pyridin-3-yl)oxy)methyl)piperidin-1-yl)-1H-pyrazolo[3,4-b]pyrazine], the EC50 was less than 10 µM.

In turn, `C[C@@H]1C[C@@H](COc2cccnc2C(F)(F)F)CN(c2cnc3cnn(CC(F)F)c3n2)C1` [Compound 95, 1-(2,2-Difluoroethyl)-6-((3R,5R)-3-methyl-5-(((2-(trifluoromethyl)pyridin-3-yl)oxy)methyl)piperidin-1-yl)-1H-pyrazolo[3,4-b]pyrazine] returned an EC50 of less than 10 µM.

`Cn1c(-c2ccc(F)cc2)nc2ncc(C(=O)N3CCCC(COc4cccnc4C(F)(F)F)C3)nc21` (stereo not shown) [Compound 96, (2-(4-Fluorophenyl)-1-methyl-1H-imidazo[4,5-b]pyrazin-6-yl)(3-(((2-(trifluoromethyl)pyridin-3-yl)oxy)methyl)piperidin-1-yl)methanone] returned an EC50 of 10 to 50 µM.

Consider `Cn1c(-c2ccc(F)cc2)nc2nc(C(=O)N3CCCC(COc4cccnc4C(F)(F)F)C3)cnc21` (stereo not shown) [Compound 97, (2-(4-Fluorophenyl)-1-methyl-1H-imidazo[4,5-b]pyrazin-5-yl)(3-(((2-(trifluoromethyl)pyridin-3-yl)oxy)methyl)piperidin-1-yl)methanone], for which the EC50 is more than 100 µM.

Turning to `FC(F)(F)c1ncccc1OC[C@@H]1[C@H]2CN(c3cnc4cnn(C5COC5)c4n3)C[C@@H]12` [Compound 98, 1-(Oxetan-3-yl)-6-((1R,5S,6r)-6-(((2-(trifluoromethyl)pyridin-3-yl)oxy)methyl)-3-azabicyclo[3.1.0]hexan-3-yl)-1H-pyrazolo[3,4-b]pyrazine], the EC50 was more than 100 µM.

For the compound `C[C@H]1C[C@H](COc2cccnc2C(F)(F)F)CN(c2cnc3cnn(CC(F)F)c3n2)C1` [Compound 100, 1-(2,2-Difluoroethyl)-6-((3S,5S)-3-methyl-5-(((2-(trifluoromethyl)pyridin-3-yl)oxy)methyl)piperidin-1-yl)-1H-pyrazolo[3,4-b]pyrazine], the EC50 was in the range of 10 to 50 µM.

In the case of `FC(F)(F)Cn1ncc2ncc(N3C[C@@H]4[C@@H](COc5cccnc5C(F)(F)F)[C@@H]4C3)nc21` [Compound 101, (1R,5S,6S)-3-[1-(2,2,2-Trifluoroethyl)-1H-pyrazolo[3,4-b]pyrazin-6-yl]-6-({[2-(trifluoromethyl)pyridin-3-yl]oxy}methyl)-3-azabicyclo[3.1.0]hexane], the EC50 lay in the range of 10 to 50 µM.

Take `O=C(c1cnc2c(cnn2-c2ccccc2)n1)N1CCCC(COc2cccnc2C(F)(F)F)C1` (stereo not shown) [Compound 103, (1-Phenyl-1H-pyrazolo[3,4-b]pyrazin-5-yl)(3-(((2-(trifluoromethyl)pyridin-3-yl)oxy)methyl)piperidin-1-yl)methanone]: the EC50 is 10 to 50 µM.
